Results: ChEMBL document CHEMBL1914292, “Synthesis and in vitro cytotoxic activity of novel pyrazolo[3,4-d]pyrimidines and related pyrazole hydrazones toward breast adenocarcinoma MCF-7 cell line” (Bioorg Med Chem, 2011)

Assays:
MCF7 [1] = assay: Cytotoxicity against human MCF7 cells after 48 hrs by SRB colorimetric assay; assay type: functional, cell-based; conditions: MCF7, 48 h
MCF7 [2] = assay: Cytotoxicity against human MCF7 cells assessed as nitric oxide level per mg protein at 1/10 of IC50 after 24 hrs (reference value: 1.9 +/- 0.16 umol); assay type: functional
MCF7 [3] = assay: Cytotoxicity against human MCF7 cells assessed as DNA level per 10 '6 cells at 1/10 of IC50 after 24 hrs (reference value: 8.5 +/- 0.8 ug); assay type: functional
MCF7 [4] = assay: Cytotoxicity against human MCF7 cells assessed as RNA level per 10 '6 cells at 1/10 of IC50 after 24 hrs (reference value: 15.3 +/- 1.6 ug); assay type: functional
MCF7 [5] = assay: Induction of oxidative stress in human MCF7 cells assessed as superoxide dismutase activity per mg of protein at 1/10 of IC50 after 24 hrs (reference value: 40.3 +/- 4.75 U); assay type: functional
MCF7 [6] = assay: Induction of oxidative stress in human MCF7 cells assessed as catalase activity per mg of protein at 1/10 of IC50 after 24 hrs (reference value: 7.6 +/- 0.7 U); assay type: functional
MCF7 [7] = assay: Induction of oxidative stress in human MCF7 cells assessed as hydrogen peroxide level per mg of protein at 1/10 of IC50 after 24 hrs (reference value: 15.7 +/- 1.6 nmol); assay type: functional
MCF7 [8] = assay: Induction of oxidative stress in human MCF7 cells assessed as GSH level per mg of protein at 1/10 of IC50 after 24 hrs (reference value: 40 +/- 5 nmol); assay type: functional
MCF7 [9] = assay: Cytotoxicity against human MCF7 cells assessed as protein level per 10 '6 cells at 1/10 of IC50 after 24 hrs (reference value: 110.5 +/- 12.3 ug); assay type: functional
MCF7 [10] = assay: Induction of oxidative stress in human MCF7 cells assessed as glutathione peroxidase activity per mg of protein at 1/10 of IC50 after 24 hrs (reference value: 9.3 +/- 1 U); assay type: functional

Row | Structure (SMILES) | IC50 (MCF7 [1]) [µM] | Activity (MCF7 [2]) [µmol] | Activity (MCF7 [3]) [µg] | Activity (MCF7 [4]) [µg] | Activity (MCF7 [5]) [U] | Activity (MCF7 [6]) [U] | Activity (MCF7 [7]) [nmol] | Activity (MCF7 [8]) [nmol] | Activity (MCF7 [9]) [µg] | Activity (MCF7 [10]) [U]
1 | COc1ccc(/C=N/NC(=O)c2cn[nH]c2NC(C)=O)cc1 | 61.7 |  |  |  |  |  |  |  |  | 
2 | Cc1nc2c(cnn2-c2ccccc2)c(=O)n1-c1cnc2ccccc2c1 | 1.53 |  |  |  |  |  |  |  |  | 
3 | Cc1nc2c(cnn2-c2ccc(Cl)cc2)c(=O)n1/N=C/c1ccccc1 | 23.1 | 3 | 5.11 | 5 | 95.25 | 3.82 | 30 | 30.4 | 55.4 | 6
4 | COc1ccc(/C=N/n2c(C)nc3c(cnn3-c3ccc(Cl)cc3)c2=O)cc1 | 38.6 | 2.9 | 7 | 12 | 50 | 7.4 | 24.8 | 36.3 | 80.2 | 8
5 | COc1cc(/C=N/n2c(C)nc3c(cnn3-c3ccc(Cl)cc3)c2=O)ccc1O | 19.8 | 3.6 | 4.5 | 3.2 | 100.3 | 3.5 | 39.4 | 23.5 | 42.6 | 5.4
6 | COc1ccc(/C=N/n2c(C)nc3c(cnn3-c3ccc(Cl)cc3)c2=O)cc1OC | 25 |  |  |  |  |  |  |  |  | 
7 | COc1cc(/C=N/n2c(C)nc3c(cnn3-c3ccc(Cl)cc3)c2=O)cc(OC)c1OC | 7.6 | 4.4 | 3 | 2.6 | 110 | 2.2 | 53.3 | 17.8 | 27.5 | 4.85
8 | Cc1nc2c(cnn2S(=O)(=O)c2ccc(Cl)cc2)c(=O)n1/N=C/c1ccccc1 | 22.4 |  |  |  |  |  |  |  |  | 
9 | COc1ccc(/C=N/n2c(C)nc3c(cnn3S(=O)(=O)c3ccc(Cl)cc3)c2=O)cc1 | 41.9 |  |  |  |  |  |  |  |  | 
10 | COc1ccc(/C=N/n2c(C)nc3c(cnn3S(=O)(=O)c3ccc(Cl)cc3)c2=O)cc1OC | 33.6 |  |  |  |  |  |  |  |  | 
11 | COc1cc(/C=N/n2c(C)nc3c(cnn3S(=O)(=O)c3ccc(Cl)cc3)c2=O)cc(OC)c1OC | 27.8 | 2.8 | 5.3 | 7.22 | 80 | 4.3 | 27.8 | 34.2 | 78.3 | 6.8
12 | COc1cc(C(=O)Nn2c(C)nc3c(cnn3S(=O)(=O)c3ccc(Cl)cc3)c2=O)cc(OC)c1OC | 35.8 |  |  |  |  |  |  |  |  | 
13 | CC(=O)Nc1[nH]ncc1C(=O)N/N=C/c1ccccc1 | 42 |  |  |  |  |  |  |  |  | 
14 | COc1ccc(/C=N/NC(=O)c2cn[nH]c2NC(C)=O)cc1OC | 37.1 |  |  |  |  |  |  |  |  | 
15 | COc1cc(/C=N/NC(=O)c2cn[nH]c2NC(C)=O)cc(OC)c1OC | 32.1 | 3 | 6.1 | 8.8 | 75.44 | 5.85 | 25.6 | 30.11 | 85.8 | 7.33
